In publication PMC10101059, “Rational Design of Stapled Antimicrobial Peptides to Enhance Stability and In Vivo Potency against Polymicrobial Sepsis” (Microbiology Spectrum, 2023):

Legend:
MDR A. baumannii 2962 = assay: microbe, parasite or virus in culture; format: cell-based, Acinetobacter baumannii
Description: (§1) The FICI was measured using a standard checkerboard microdilution assay ([57]). Two-fold dilutions of antibiotics were made across the x axis, and two-fold peptide dilutions were made across the y axis. Next, bacteria were added at 5 × 10^5 CFU/well (A. baumannii), followed by incubation at 37 ± 2°C for 16 to 20 h. FIC indices were calculated according to the following equations: FICI = FIC1 + FIC2; FIC1 = (MIC12 combined)/MIC1; FIC2 = (MIC12 combined)/MIC2. The combined efficacy was estimated as follows: FICI ≤ 0.5, synergistic; 0.5 to 1, additive; 1 to 2, indifferent; ≥2, antagonistic.

MDR A. baumannii 1019 = assay: microbe, parasite or virus in culture; format: cell-based, Acinetobacter baumannii
Description: as §1

MDR A. baumannii 1607 = assay: microbe, parasite or virus in culture; format: cell-based, Acinetobacter baumannii
Description: as §1

MDR A. baumannii 921 = assay: microbe, parasite or virus in culture; format: cell-based, Acinetobacter baumannii
Description: as §1

MDR A. baumannii 2982 = assay: microbe, parasite or virus in culture; format: cell-based, Acinetobacter baumannii
Description: as §1

MDR A. baumannii 14B001 = assay: microbe, parasite or virus in culture; format: cell-based, Acinetobacter baumannii
Description: as §1

MDR A. baumannii 1702 = assay: microbe, parasite or virus in culture; format: cell-based, Acinetobacter baumannii
Description: as §1

NDM1 K. pneumoniae = assay: microbe, parasite or virus in culture; format: cell-based, Klebsiella pneumoniae
E. coli = assay: microbe, parasite or virus in culture; format: cell-based, Escherichia coli
S enterica = assay: Checkerboard microdilution assay (FICI); format: cell-based, Salmonella enterica
E. aerogenes = assay: microbe, parasite or virus in culture; format: cell-based, Enterobacter aerogenes
P. aeruginosae = assay: microbe, parasite or virus in culture; format: cell-based, Pseudomonas aeruginosa
MDR A. baumannii 3618 = assay: Checkerboard microdilution assay (FICI); format: cell-based, Acinetobacter baumannii
Description: as §1

MDR A. baumannii 2997 = assay: Checkerboard microdilution assay (FICI); format: cell-based, Acinetobacter baumannii
Description: as §1

MDR A. baumannii 2088 = assay: Checkerboard microdilution assay (FICI); format: cell-based, Acinetobacter baumannii
Description: as §1

MDR A. baumannii 2998 = assay: Checkerboard microdilution assay (FICI); format: cell-based, Acinetobacter baumannii
Description: as §1

MDR A. baumannii 1033 = assay: Checkerboard microdilution assay (FICI); format: cell-based, Acinetobacter baumannii
Description: as §1

[1] = Acinetobacter baumannii, read-out: Single drug treatment MIC
[2] = MIC of each agent in combination, TP4-3 and D

C[C@H]1c2cccc(O)c2C(=O)C2=C(O)[C@]3(O)C(=O)C(C(N)=O)=C(O)[C@@H](N(C)C)[C@@H]3[C@@H](O)[C@@H]21 [D, doxycycline]
25 µM: TP4-3 and meropenem combined MIC (MDR A. baumannii 2962; [2]) | TP4-3 and meropenem combined MIC (MDR A. baumannii 1607; [2]) | TP4-3 and meropenem combined MIC (MDR A. baumannii 921; [2]) | TP4-3 and meropenem combined MIC (MDR A. baumannii 2982; [2]) | MIC (NDM1 K. pneumoniae; Klebsiella pneumoniae, read-out: Single drug treatment MIC) | TP4-3 and meropenem combined MIC (MDR A. baumannii 3618; [2]) | TP4-3 and meropenem combined MIC (MDR A. baumannii 2997; [2])
6.25 µM: MIC (S enterica; Salmonella enterica, read-out: Single drug treatment MIC) | MIC (P. aeruginosae; Pseudomonas aeruginosa, read-out: Single drug treatment MIC)
3.13 µM: TP4-3 and meropenem combined MIC (NDM1 K. pneumoniae; [2]) | MIC (E. aerogenes; Klebsiella aerogenes, read-out: Single drug treatment MIC)
200 µM: MIC (MDR A. baumannii 921; [1])
0.78 µM: TP4-3 and meropenem combined MIC (E. coli; [2]) | TP4-3 and meropenem combined MIC (E. aerogenes; [2])
100 µM: MIC (MDR A. baumannii 2962; [1]) | MIC (MDR A. baumannii 1019; [1]) | MIC (MDR A. baumannii 1607; [1]) | MIC (MDR A. baumannii 3618; [1]) | MIC (MDR A. baumannii 2088; [1])
1.56 µM: TP4-3 and meropenem combined MIC (S enterica; [2])
50 µM: MIC (MDR A. baumannii 2982; [1]) | MIC (MDR A. baumannii 14B001; [1]) | TP4-3 and meropenem combined MIC (MDR A. baumannii 14B001; [2]) | MIC (MDR A. baumannii 1702; [1]) | MIC (E. coli; Escherichia coli, read-out: Single drug treatment MIC) | MIC (MDR A. baumannii 2997; [1]) | MIC (MDR A. baumannii 2998; [1]) | MIC (MDR A. baumannii 1033; [1])
12.5 µM: TP4-3 and meropenem combined MIC (MDR A. baumannii 1019; [2]) | TP4-3 and meropenem combined MIC (MDR A. baumannii 1702; [2]) | TP4-3 and meropenem combined MIC (P. aeruginosae; [2]) | TP4-3 and meropenem combined MIC (MDR A. baumannii 2088; [2]) | TP4-3 and meropenem combined MIC (MDR A. baumannii 2998; [2]) | TP4-3 and meropenem combined MIC (MDR A. baumannii 1033; [2])
